Measurements as given in patent US11202782B2, “Treatment cancers using a combination comprising PARP inhibitors” (BeiGene, Ltd., priority 2016, dated 2021).

What was measured:
[1] = test system: primary human gastric cancer xenograft; test: Tumor growth in primary human gastric cancer xenograft model; type: in vivo, BALB/c nude mice; settings: paclitaxel 15 mg/kg Q4D×3 i.p.; Compound A 12 mg/kg BID p.o.; not statistically different from vehicle
Protocol: (§1) Tumor tissues surgically removed from a patient with gastric cancer. Within 2 to 4 hours following patient surgery, small fragments of tumor (3×3×3 mm^3) were subcutaneously engrafted into the scapular area of anesthetized NOD/SCID mice. After tumors grew to around 300-1000 mm^3, tumors were surgically removed and fragments were passaged in NOD/SCID mice by subsequent engraftments. Engraftment in BALB/c nude mice was conducted after 3 successfully passages in NOD/SCID mice. The right axilla region of each BALB/C nude mouse was cleaned with 70% ethanol prior to tumor fragments inoculation. Each animal was implanted subcutaneously with a fragment (around 3×3×3 mm^3) of the gastric cancer in the right flank via 20-gauge trocar needle.
All doses were based on free-base weight.
After implantation, primary tumor volume was measured in two dimensions using a calliper. Tumor volume was calculated using the formula: V=0.5×(a×b^2) where a and b are the long and short diameters of the tumor, respectively. Tumor growth inhibition (TGI) was calculated using the following formula:
[formula] Statistical analysis was conducted using the student T-test. P<0.05 was considered statistically significant.

PARP1/2 = settings: disclosed in WO2013/097225A1; cited from earlier work
[2] = test system: Primary tumor cells from a patient with colorectal cancer cultured in Matrigel co-cultured with allogeneic human PBMCs; test: IFN-γ release in primary human tumor cells (Matrigel)/PBMC co-culture with EpCAM×CD3 bispecific T cell engager; type: cell-based; settings: 50 ng/mL EpCAM×CD3 bispecific T cell engager, 72 hours; Compound B 30 nM, Mab-1 1 μg/mL; treatment group divided by control group
Protocol: After signed the informed consent, healthy human donor's blood was collected and PBMCs were isolated with Ficoll (GE Healthcare, 17-1440-02) according to the manufacturer's protocol with small modification. Briefly, fresh blood was diluted with equivalent volume of 1×DPBS (Gibco®, 14190-144), added equivalent volume of Ficoll into a 50 mL sterile tube, and added diluted blood very carefully onto the surface of the Ficoll. Then centrifuged at 400 g for 40 minutes at room temperature. Carefully removed the upper layer and pipetted the lymphocyte layer to a clean sterile tube, added 3 volumes of 1×DPBS and centrifuge at 200 g for 10 minutes at room temperature. After discarded the supernatant, suspended cells with 10 mL 1×DPBS and washed 2 times more. Suspended cells with 5 mL RPMI-1640 (Gibco®, 22400-089) complete medium (added with 10% fetal bovine serum (Gibco®, 10099-141). […]
Primary tumor cells from a patient with colorectal cancer cultured in Matrigel® were co-cultured with non pre-activated allogeneic human PBMCs, with 50 ng/ml EpCAM×CD3 bispecific T cell engager and with or without an PARP inhibitor named Compound B (30 nM) or an anti-PD-1 antibody named Mab-1 (1 μg/mL), or their combination (named as Mab-1+ Compound B, for short), and cultured for 72 hours. Human IFN-γ in the supernatant of the co-culture system was measured and as the readout (See FIG. 4). […]

[3] = test system: primary human SCLC (extensive-stage) xenograft; test: Tumor growth in primary human SCLC (extensive-stage) xenograft model; type: in vivo, BALB/c nude mice; settings: cohort2, E/C 3 cycles then Compound B 5.45 mg/kg BID for 21 days
Protocol: as §1, with “extensive-stage SCLC.” for “gastric cancer.”, “biopsy, the” for “surgery, small fragments of”, “samples” for “(3×3×3 mm^3)”, “lung” for “gastric”
47 days after implantation, animals bearing tumor were divided to two cohorts, cohort lused smaller tumors for combination setting and cohort 2 used bigger tumors for maintenance setting. In cohort1, animals with mean tumor size of ˜150 mm^3 were assigned into 6 groups with 9 mice per group using a stratified randomization procedure. […]
After implantation, primary tumor volume was measured in two dimensions using a caliper. Tumor volume was calculated using the formula: V=0.5×(a×b^2) where a and b are the long and short diameters of the tumor, respectively. […]
Tumor growth inhibition (TGI) was calculated using the following formula: […]

[4] = Body weight and toxicity in primary human SCLC (extensive-stage) xenograft model; type: in vivo, BALB/c nude mice; settings: cohort2, Compound B 5.45 mg/kg BID maintenance
Protocol: 47 days after implantation, animals bearing tumor were divided to two cohorts, cohort lused smaller tumors for combination setting and cohort 2 used bigger tumors for maintenance setting. In cohort1, animals with mean tumor size of ˜150 mm^3 were assigned into 6 groups with 9 mice per group using a stratified randomization procedure. Mice were then treated with vehicle (0.5% methylcellulose) twice daily (BID) or Compound B at 5.45 mg/kg BID for 21 days, or E/C [etoposide at 12 mg/kg (Day1-3)+carboplatin at 60 mg/kg (Day1) of a 7 day cycle] for 3 cycles then vehicle BID for 21 days (Day22-42), or the combination of E/C with Compound B at 0.68, 1.36 or 2.73 mg/kg BID (Day1-4 of the 7 day cycle) for 3 cycles then Compound B maintenance therapy at 5.45 mg/kg BID for 21 days (Day22-42). In cohort2, animals with mean tumor size of ˜400 mm^3 were treated with E/C for 3 cycles first. At day22, 20 animals were assigned into 2 groups with 10 mice per group using a stratified randomization procedure, then treated with vehicle (0.5% methylcellulose) twice daily (BID) for 21 days (Day22-42), or Compound B maintenance therapy at 5.45 mg/kg BID for 21 days (Day22-42). All doses were based on free-base weight.

[5] = Particle size distribution of crystalline sesqui-hydrate; type: physicochemical
Protocol: Compound A-Crude 2 (5.3 Kg) was mixed with a solution of isopropanol (41.6 Kg) and water (15.9 Kg). The mixture was degassed and re-protected under nitrogen and then heated to 60° C. and stirred for 2-4 h until the solid was dissolved completely. The temperature was raised to 70-80° C. and water (143 Kg) was added. The resulting mixture was heated to the internal temperature of 70-80° C. and then the heating was stopped but stirred gently for 16 h. The precipitate was filtered, washed with water (19 Kg) and slurred with water (21 kg) for 2 h. The resulting solid was filtered, washed with water (20 Kg). The filtered solid was dried at the temperature below 45° C. for 24-36 h. Compound A sesqui-hydrate (4.22 kg) was obtained with particle sizes of D90=51.51 um, D50=18.62 um, D10=7.63 um. This range of PSD is almost ideal for formulation development.

For `C[C@]12CCCN1CC1=NNC(=O)c3cc(F)cc4[nH]c2c1c34` [Compound A, (R)-2-fluoro-10a-methyl-7,8,9,10,10a,11-hexahydro-5,6,7a,11-tetraazacyclohepta[def]cyclopenta[a]fluoren-4(5H)-one], the “tumor growth inhibition (TGI) on day 21, single agent” value [1] is listed as 30% and the PARP1/2 inhibitory activities (PARP1/2) is listed as “highly selective and potent”.

In the case of `C[C@]12CCCN1CC1=NNC(=O)c3cc(F)cc4[nH]c2c1c34` [Compound B, (R)-2-fluoro-10a-methyl-7,8,9,10,10a,11-hexahydro-5,6,7a,11-tetraazacyclohepta[def]cyclopenta[a]fluoren-4(5H)-one sesqui-hydrate], the “fold changes of IFN-γ” value [2] is reported as 1.08, the “mean tumor volume after maintenance” value [3] is reported as 571 mm^3 and the “body weight change during the maintenance phase compared to the E/C treatment group” value [4] is reported as “no significant body weight change”. For the same compound, the “particle size D10” value [5] was 7.63 um, the “particle size D50” value [5] was 18.62 um and the “particle size D90” value [5] was 51.51 um.

For `CC(=O)O[C@H]1C(=O)[C@@]2(C)[C@H]([C@H](OC(=O)c3ccccc3)[C@]3(O)C[C@H](OC(=O)[C@H](O)[C@@H](NC(=O)c4ccccc4)c4ccccc4)C(C)=C1C3(C)C)[C@]1(OC(C)=O)CO[C@@H]1C[C@@H]2O` [paclitaxel, reference compound], the “tumor growth inhibition (TGI) on day 21, single agent” value [1] was 31%.
